# Test results taken from patent US10143668B2, “Hydroxy-substituted amino and ammonium derivatives and their medical use” (GRI BIO, INC., priority 2011, dated 2018).
# System: Akt phosphorylation on Ser473
# Experiment: Inhibition of activation of Akt kinase (phospho-Akt Ser473 assay in RBL-2H3 cells)
# Type: cell-based, rat
# Settings: IgE and antigen for 15 min
# Source text: The mast cell degranulation assay using the RBL-2H3 cell line (see example 5) was also used to determine the status of the PI3K/Akt axis. Activation of PI3K leads to production of PIP3 on the cytosolic side of the lipid bilayer. Akt is recruited to the PIP3 domain and subsequently activated by phosphorylation on residues Ser473 and Thr308. (Franke et al., Cell 81:727-736, (1995)). Once recruited to the membrane, it is phosphorylated and activated by other kinases (Hemmings, Science 275:628-630 (1997); Hemmings, Science 276:534 (1997); Downward, Science 279:673-674 (1998); Alessi et al., EMBO J. 15:6541-6551 (1996)). Western blotting of the phosphorylated Ser473 residue on Akt (phospho-Akt Ser473) is widely used to assess the level of activation of the PI3K/Akt axis.
# All buffers and solutions used for the phosphor-Akt Ser473 assay were from Meso Scale Discovery. Tris Lysis Buffer consisted of 150 mM NaCl, 20 mM Tris, pH 7.5, 1 mM EDTA, 1 mM EGTA and 1% Triton-X-100. Complete Tris Lysis Buffer was prepared prior to use by addition of protease inhibitor, phosphatase inhibitors and PMSF. […] Read Buffer T was used according to manufacturer's instructions. […]
# Protein assay: protein concentration was determined using the BCA (bicinchoninic acid) Protein Assay kit according to the manufacturer's instructions. […] Plates were cooled to room temperature for 5 min and absorbance at 562 nm was measured in a multi-mode plate reader. Protein concentrations were calculated using FlexStation 3 software (SoftMax Pro version 5.3). Protein concentration of lysates was determined from a standard curve (BSA) using a linear curve fit.
# Phosphoprotein assay: protein phosphorylation was determined using the MULTI-SPOT® Assay System (Mesa Scale Discovery), providing simultaneous detection of phosphorylated and total proteins. […] The optimal amount of protein was determined at 5 μg lysate per well for ERK½ and 10 μg/well for phospho-Akt Ser473. […] After a final four washes with Tris Wash Buffer 150 μl/well, Read Buffer T was added, and plates read on a SECTOR Imager 6000 plate reader. […]
structure (smiles),measurement,setting,value
"CCCCCCCCCCCCCC[N+](C)(C)CC(=O)N(C)C[C@H](O)[C@@H](O)[C@H](O)[C@H](O)CO [Compound 1a, N-(2-(Dimethyl(tetradecyl)ammonio)acetyl)-N-methyl-D-glucamine chloride]",Level of phospho-Akt Ser473,1 μM,81.8 ± 42.5 % positive control
same,Level of phospho-Akt Ser473,5 μM,22.6 ± 15.7 % positive control
same,Level of phospho-Akt Ser473,25 μM,6.8 ± 1.8 % positive control
